Test system: MDA-231 cancer cells
Test: Inhibition of proliferation assay: cell confluence (IncuCyte live cell imaging)
Type: cell-based
Conditions: MDA-231 cells, IncuCyte imaging over 4-5 d
Text: The confluence value is a surrogate for cell proliferation and growth. The value is expressed as a percent confluence, which represents the fraction of culture dish-surface that is occupied by cells. As the number of cells in the dish increases over time due to proliferation, so will their coverage of that surface increase. Expansion of the cell population on the cell culture-dish surface and confluence have mostly a linear relationship until the cells on the plate surface begin to reach saturation or maximum density. Confluence is determined based on image analysis. Image based software can identify objects in the image field base on changes to pixel density in a grey scale image. The software can then assign a mask to those pixels within the object. Objects can be ‘gated’ out based on size and shape. To determine cell confluence, images of cells are first masked as objects. The surface area of the image that is masked is measured and compared to the total surface area of the culture dish surface to obtain a percent confluence. MDA-231 cancer cells were obtained from ATCC. Cells were cultured in Dulbecco's Modified Eagle Medium (DMEM) supplemented with 10% Fetal Bovine Serum (FBS), 2 mM Glutamax, 1 mM Non Essential Amino Acid (NEAA) solution and 1 mM sodium pyruvate. […] Final DMSO concentrations were ≤0.1%. Images were acquired with an IncuCyte Live Cell Imaging microscopy (Essen Bioscience) at every 3 h under cell culture conditions with 10× objective over 4-5 d. Cell confluence was calculated from one field of view per well using the IncuCyte in-built algorithm. Relative confluence values were obtained by normalising each value to the time zero value in each sample.

Row | Structure (SMILES) | % Confluence (compound at 10 μM) [%] | % Confluence (compound at 100 μM) [%]
1 | CC[C@H]1OC(=O)[C@H](C)[C@@H](O[C@H]2C[C@@](C)(OC)[C@@H](O)[C@H](C)O2)[C@H](C)[C@@H](O[C@@H]2O[C@H](C)C[C@H](N(C)C)[C@H]2O)[C@](C)(O)C[C@@H](C)CN(C(=O)CCCCCC[P+](c2cc(C)cc(C)c2)(c2cc(C)cc(C)c2)c2cnn(C(C)C)c2)[C@H](C)[C@@H](O)[C@]1(C)O.[Cl-] [Example 6, {7-[(2R,3S,4R,5R,8R,10R,11R,12S,13S,14R)-11-{[(2S,3R,4S,6R)-4-(dimethylamino)-3-hydroxy-6-methyloxan-2-yl]oxy}-2-ethyl-3,4,10-trihydroxy-13-{[(2R,4R,5S,6S)-5-hydroxy-4-methoxy-4,6-dimethyloxan-2-yl]oxy}-3,5,8,10,12,14-hexamethyl-15-oxo-1-oxa-6-azacyclopentadecan-6-yl]-7-oxoheptyl}bis(3,5-dimethylphenyl)[1-(propan-2-yl)-1H-pyrazol-4-yl]phosphonium chloride] | 15.3 | –
2 | CC[C@H]1OC(=O)[C@H](C)[C@@H](O[C@H]2C[C@@](C)(OC)[C@@H](O)[C@H](C)O2)[C@H](C)[C@@H](O[C@@H]2O[C@H](C)C[C@H](N(C)C)[C@H]2O)[C@](C)(O)C[C@@H](C)CN(C(=O)CCCCCCCCCCCCC[P+](c2ccccc2)(c2ccccc2)C2CCOCC2)[C@H](C)[C@@H](O)[C@]1(C)O.[Cl-] [Example 8, {14-[(2R,3S,4R,5R,8R,10R,11R,12S,13S,14R)-11-{[(2S,3R,4S,6R)-4-(dimethylamino)-3-hydroxy-6-methyloxan-2-yl]oxy}-2-ethyl-3,4,10-trihydroxy-13-{[(2R,4R,5S,6S)-5-hydroxy-4-methoxy-4,6-dimethyloxan-2-yl]oxy}-3,5,8,10,12,14-hexamethyl-15-oxo-1-oxa-6-azacyclopentadecan-6-yl]-14-oxotetradecyl}(oxan-4-yl)diphenylphosphonium chloride] | 5.5 | –
3 | CC[C@H]1OC(=O)[C@H](C)[C@@H](O[C@H]2C[C@@](C)(OC)[C@@H](O)[C@H](C)O2)[C@H](C)[C@@H](O[C@@H]2O[C@H](C)C[C@H](N(C)C)[C@H]2O)[C@](C)(O)C[C@@H](C)CN(C(=O)CCCCCCCCCCCCC[P+](c2ccccc2)(c2ccccc2)c2cnn(C)c2)[C@H](C)[C@@H](O)[C@]1(C)O.[Cl-] [Example 1, {14-[(2R,3S,4R,5R,8R,10R,11R,12S,13S,14R)-11-{[(2S,3R,4S,6R)-4-(dimethylamino)-3-hydroxy-6-methyloxan-2-yl]oxy}-2-ethyl-3,4,10-trihydroxy-13-{[(2R,4R,5S,6S)-5-hydroxy-4-methoxy-4,6-dimethyloxan-2-yl]oxy}-3,5,8,10,12,14-hexamethyl-15-oxo-1-oxa-6-azacyclopentadecan-6-yl]-14-oxotetradecyl}(1-methyl-1H-pyrazol-4-yl)diphenylphosphonium chloride] | 4.3 | –
4 | CC[C@H]1OC(=O)[C@H](C)[C@@H](O[C@H]2C[C@@](C)(OC)[C@@H](O)[C@H](C)O2)[C@H](C)[C@@H](O[C@@H]2O[C@H](C)C[C@H](N(C)C)[C@H]2O)[C@](C)(O)C[C@@H](C)CN(C(=O)CCCCCCCCCCC[P+](c2ccccc2)(c2ccccc2)c2cnn(C3CCC3)c2)[C@H](C)[C@@H](O)[C@]1(C)O.[Cl-] [Example 4, (1-cyclobutyl-1H-pyrazol-4-yl)({12-[(2R,3S,4R,5R,8R,10R,11R,12S,13S,14R)-11-{[(2S,3R,4S,6R)-4-(dimethylamino)-3-hydroxy-6-methyloxan-2-yl]oxy}-2-ethyl-3,4,10-trihydroxy-13-{[(2R,4R,5S,6S)-5-hydroxy-4-methoxy-4,6-dimethyloxan-2-yl]oxy}-3,5,8,10,12,14-hexamethyl-15-oxo-1-oxa-6-azacyclopentadecan-6-yl]-12-oxododecyl})diphenylphosphonium chloride] | 4.4 | –
5 | CC[C@H]1OC(=O)[C@H](C)[C@@H](O[C@H]2C[C@@](C)(OC)[C@@H](O)[C@H](C)O2)[C@H](C)[C@@H](O[C@@H]2O[C@H](C)C[C@H](N(C)C)[C@H]2O)[C@](C)(O)C[C@@H](C)CN(C(=O)CCCCCCCCCCCC[P+](C2CCCC2)(C2CCCC2)C2CCCC2)[C@H](C)[C@@H](O)[C@]1(C)O.[Cl-] [Example 9, tricyclopentyl({13-[(2R,3S,4R,5R,8R,10R,11R,12S,13S,14R)-11-{[(2S,3R,4S,6R)-4-(dimethylamino)-3-hydroxy-6-methyloxan-2-yl]oxy}-2-ethyl-3,4,10-trihydroxy-13-{[(2R,4R,5S,6S)-5-hydroxy-4-methoxy-4,6-dimethyloxan-2-yl]oxy}-3,5,8,10,12,14-hexamethyl-15-oxo-1-oxa-6-azacyclopentadecan-6-yl]-13-oxotridecyl})phosphonium chloride] | 4 | –
6 | CC[C@H]1OC(=O)[C@H](C)[C@@H](O[C@H]2C[C@@](C)(OC)[C@@H](O)[C@H](C)O2)[C@H](C)[C@@H](O[C@@H]2O[C@H](C)C[C@H](N(C)C)[C@H]2O)[C@](C)(O)C[C@@H](C)CN(C(=O)CCCCCCCCCCCC[P+](c2ccccc2)(c2ccccc2)c2cnn(C(C)C)c2)[C@H](C)[C@@H](O)[C@]1(C)O [Example 2, {13-[(2R,3S,4R,5R,8R,10R,11R,12S,13S,14R)-11-{[(2S,3R,4S,6R)-4-(dimethylamino)-3-hydroxy-6-methyloxan-2-yl]oxy}-2-ethyl-3,4,10-trihydroxy-13-{[(2R,4R,5S,6S)-5-hydroxy-4-methoxy-4,6-dimethyloxan-2-yl]oxy}-3,5,8,10,12,14-hexamethyl-15-oxo-1-oxa-6-azacyclopentadecan-6-yl]-13-oxotridecyl}diphenyl[1-(propan-2-yl)-1H-pyrazol-4-yl]phosphonium chloride] | 5.1 | –
7 | CC[C@H]1OC(=O)[C@H](C)[C@@H](O[C@H]2C[C@@](C)(OC)[C@@H](O)[C@H](C)O2)[C@H](C)[C@@H](O[C@@H]2O[C@H](C)C[C@H](N(C)C)[C@H]2O)[C@](C)(O)C[C@@H](C)CN(C(=O)CCCCCCCCCCC[P+](c2ccccc2)(c2ccccc2)c2cnn(C(C)(C)C)c2)[C@H](C)[C@@H](O)[C@]1(C)O [Example 3, (1-tert-butyl-1H-pyrazol-4-yl)({12-[(2R,3S,4R,5R,8R,10R,11R,12S,13S,14R)-11-{[(2S,3R,4S,6R)-4-(dimethylamino)-3-hydroxy-6-methyloxan-2-yl]oxy}-2-ethyl-3,4,10-trihydroxy-13-{[(2R,4R,5S,6S)-5-hydroxy-4-methoxy-4,6-dimethyloxan-2-yl]oxy}-3,5,8,10,12,14-hexamethyl-15-oxo-1-oxa-6-azacyclopentadecan-6-yl]-12-oxododecyl})diphenylphosphonium chloride] | 4 | –
8 | CC[C@H]1OC(=O)[C@H](C)[C@@H](O[C@H]2C[C@@](C)(OC)[C@@H](O)[C@H](C)O2)[C@H](C)[C@@H](O[C@@H]2O[C@H](C)C[C@H](N(C)C)[C@H]2O)[C@](C)(O)C[C@@H](C)CN(C(=O)CCCCCC[P+](c2cc(C)cc(C)c2)(c2cc(C)cc(C)c2)c2cc(C)cc(C)c2)[C@H](C)[C@@H](O)[C@]1(C)O.[Cl-] [Example 7, {7-[(2R,3S,4R,5R,8R,10R,11R,12S,13S,14R)-11-{[(2S,3R,4S,6R)-4-(dimethylamino)-3-hydroxy-6-methyloxan-2-yl]oxy}-2-ethyl-3,4,10-trihydroxy-13-{[(2R,4R,5S,6S)-5-hydroxy-4-methoxy-4,6-dimethyloxan-2-yl]oxy}-3,5,8,10,12,14-hexamethyl-15-oxo-1-oxa-6-azacyclopentadecan-6-yl]-7-oxoheptyl}tris(3,5-dimethylphenyl)phosphonium chloride] | 4.6 | –
9 | CC[C@H]1OC(=O)[C@H](C)[C@@H](O[C@H]2C[C@@](C)(OC)[C@@H](O)[C@H](C)O2)[C@H](C)[C@@H](O[C@@H]2O[C@H](C)C[C@H](N(C)C)[C@H]2O)[C@](C)(O)C[C@@H](C)CN(C)[C@H](C)[C@@H](O)[C@]1(C)O [Azithromycin] | 99.1 | 17
10 | CC[C@H]1OC(=O)[C@H](C)[C@@H](O[C@H]2C[C@@](C)(OC)[C@@H](O)[C@H](C)O2)[C@H](C)[C@@H](O[C@@H]2O[C@H](C)C[C@H](N(C)C)[C@H]2O)[C@](C)(O)C[C@@H](C)CN(C(=O)CCCCCCC[P+](c2cc(C)cc(C)c2)(c2cc(C)cc(C)c2)c2cnn(C(C)C)c2)[C@H](C)[C@@H](O)[C@]1(C)O.[Cl-] [Example 5, {8-[(2R,3S,4R,5R,8R,10R,11R,12S,13S,14R)-11-{[(2S,3R,4S,6R)-4-(dimethylamino)-3-hydroxy-6-methyloxan-2-yl]oxy}-2-ethyl-3,4,10-trihydroxy-13-{[(2R,4R,5S,6S)-5-hydroxy-4-methoxy-4,6-dimethyloxan-2-yl]oxy}-3,5,8,10,12,14-hexamethyl-15-oxo-1-oxa-6-azacyclopentadecan-6-yl]-8-oxooctyl}bis(3,5-dimethylphenyl)[1-(propan-2-yl)-1H-pyrazol-4-yl]phosphonium chloride] | 23.1 | –
